Values after ≈ are worked out from the molar mass of the structure shown. Like-named read-outs stand apart in the source and are kept apart here.
Experiments:
M. tuberculosis Dxr = M. tuberculosis Dxr (Mycobacterium tuberculosis, UniProt P9WNS1); assay: biochemical
Mtb H37Rv (ATCC 27294) = assay: microbe, parasite or virus in culture; format: cell-based, Mycobacterium tuberculosis; conditions: for MIC: Mycobacterium tuberculosis
MRSA NRS 70 = assay: microbe, parasite or virus in culture; format: cell-based, S. aureus
E. coli k12 = assay: microbe, parasite or virus in culture; format: cell-based
E. coli tolc = assay: microbe, parasite or virus in culture; format: cell-based
E. faecalis = assay: microbe, parasite or virus in culture; format: cell-based
B. anthracis = assay: microbe, parasite or virus in culture; format: cell-based, Bacillus anthracis
Acinetobacter = assay: microbe, parasite or virus in culture; format: cell-based
S. aureus (MSSA) = assay: microbe, parasite or virus in culture; format: cell-based
[1] = read-out: Mtb MIC (ug/mL) (7H9)
[2] = read-out: Mtb MIC (ug/mL) (GAST)

Chain of M. tuberculosis Dxr (P9WNS1 whole entry, looked up): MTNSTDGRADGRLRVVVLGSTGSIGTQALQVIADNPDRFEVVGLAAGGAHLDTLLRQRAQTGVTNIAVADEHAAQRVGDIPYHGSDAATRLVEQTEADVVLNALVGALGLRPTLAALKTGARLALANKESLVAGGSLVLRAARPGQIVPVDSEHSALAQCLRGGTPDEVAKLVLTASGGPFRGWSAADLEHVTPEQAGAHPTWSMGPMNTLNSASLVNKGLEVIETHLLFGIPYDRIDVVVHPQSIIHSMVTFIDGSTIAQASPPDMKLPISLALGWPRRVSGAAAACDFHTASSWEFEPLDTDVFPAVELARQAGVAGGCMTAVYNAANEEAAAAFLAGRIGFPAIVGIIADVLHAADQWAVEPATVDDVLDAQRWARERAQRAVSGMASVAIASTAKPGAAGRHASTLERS

## CC(=O)N(CCCP(=O)(O)O)OCCc1ccccc1 [Compound 3, Sodium hydrogen 3-(N-(phenethyloxy)acetamido)propylphosphonate]
M. tuberculosis Dxr; IC50 (μM)
  IC50: 96.4 µM

## CC(=O)N(CCCP(=O)(O)O)OCCCc1ccccc1 [Compound 4, Sodium hydrogen 3-(N-(3-phenylpropoxy)acetamido)propylphosphonate]
M. tuberculosis Dxr; read-out: % Remaining Enzyme Activity at 100 μg/mL
  remaining activity at 100 µg/mL: 100%

## CC(=O)N(CCCP(=O)(O)O)OCc1ccc(C(C)C)cc1 [Compound 5, Sodium hydrogen 3-(N-(4-isopropylbenzyloxy)acetamido)propylphosphonate]
M. tuberculosis Dxr; IC50 (μM)
  IC50: 50.6 µM

## CCOP(=O)(CCN(O)C=O)OCC [Compound 5b]
Mtb H37Rv (ATCC 27294)
  MIC 7H9: >500 µg/mL
  MIC GAST/Fe: >500 µg/mL

## CCOP(=O)(CCCN(O)C=O)OCC [Compound 5c]
Mtb H37Rv (ATCC 27294)
  MIC 7H9: 250 µg/mL (≈ 1050 µM)

## CCOP(=O)(CCN(O)C(C)=O)OCC [Compound 5f]
Mtb H37Rv (ATCC 27294)
  MIC 7H9: >500 µg/mL
  MIC GAST/Fe: >500 µg/mL

## CC(=O)N(CCCP(=O)(O)O)OCC1CCCCC1 [Compound 6, Sodium hydrogen 3-(N-(cyclohexylmethoxy)acetamido)propylphosphonate]
M. tuberculosis Dxr; IC50 (μM)
  IC50: 198 µM

## O=C(Cc1ccccc1)N(O)CCCP(=O)(O)O [Compound 7, Sodium hydrogen 3-(N-hydroxy-2-phenylacetamido)propylphosphonate]
M. tuberculosis Dxr; IC50 (μM)
  IC50: 7.5 µM

## O=C(CCCc1ccccc1)N(O)CCCP(=O)(O)O [Compound 8, Sodium hydrogen 3-(N-hydroxy-4-phenylbutanamido)propylphosphonate]
M. tuberculosis Dxr; IC50 (μM)
  IC50: 3.1 µM

## O=C(C1CCCCC1)N(O)CCCP(=O)(O)O [Compound 9, Sodium hydrogen 3-(N-hydroxycyclohexanecarboxamido)propylphosphonate]
M. tuberculosis Dxr; IC50 (μM)
  IC50: 57.8 µM

## CCOP(=O)(CCCN(O)C(=O)c1ccccc1)OCC [Compound 9a]
Mtb H37Rv (ATCC 27294); read-out: MIC 7H9 (μg/mL)
  MIC: > 500 µg/mL
Mtb H37Rv (ATCC 27294); read-out: MIC GAST/Fe (μg/mL)
  MIC: 31.2 µg/mL (≈ 99.1 µM)

## CCOP(=O)(CCCN(O)C=O)OCC [Compound 10, Diethyl fosmidomycin]
MRSA NRS 70
  MIC S. aureus (MRSA): >200 µg/mL
E. coli k12
  MIC E. coli k12: >200 µg/mL
E. coli tolc
  MIC E. coli tolc: >200 µg/mL
E. faecalis
  MIC E. faecalis: >200 µg/mL
B. anthracis
  MIC B. anthracis: >200 µg/mL
Acinetobacter
  MIC Acinetobacter: >200 µg/mL
Mtb H37Rv (ATCC 27294)
  MIC M. tuberculosis (H37Rv): 400 µg/mL (≈ 1670 µM)
S. aureus (MSSA)
  MIC S. aureus (MSSA): >200 µg/mL

## CCCCCCOP(=O)(CCCN(O)C(C)=O)OCCCCCC [Compound 21]
Mtb H37Rv (ATCC 27294)
  MIC M. tuberculosis (H37Rv): 100 µg/mL (≈ 274 µM)

## CCOC(=O)OC(C)OP(=O)(CCCN(O)C(C)=O)OC(C)OC(=O)OCC (stereo not drawn) [Compound 22]
MRSA NRS 70
  MIC S. aureus (MRSA): >200 µg/mL
E. coli k12
  MIC E. coli k12: >200 µg/mL
E. coli tolc
  MIC E. coli tolc: 200 µg/mL (≈ 466 µM)
E. faecalis
  MIC E. faecalis: >200 µg/mL
B. anthracis
  MIC B. anthracis: >200 µg/mL
Acinetobacter
  MIC Acinetobacter: >200 µg/mL
Mtb H37Rv (ATCC 27294)
  MIC M. tuberculosis (H37Rv): 400 µg/mL (≈ 932 µM)
S. aureus (MSSA)
  MIC S. aureus (MSSA): >200 µg/mL

## CC(=O)N(O)CCCP(=O)(OCC(=O)OC(C)(C)C)OCC(=O)OC(C)(C)C [Compound 23]
MRSA NRS 70
  MIC S. aureus (MRSA): 25 µg/mL (≈ 58.8 µM)
E. coli k12
  MIC E. coli k12: >200 µg/mL
E. coli tolc
  MIC E. coli tolc: >200 µg/mL
E. faecalis
  MIC E. faecalis: >200 µg/mL
B. anthracis
  MIC B. anthracis: >200 µg/mL
Acinetobacter
  MIC Acinetobacter: >200 µg/mL
Mtb H37Rv (ATCC 27294)
  MIC M. tuberculosis (H37Rv): 400 µg/mL (≈ 940 µM)
S. aureus (MSSA)
  MIC S. aureus (MSSA): 100 µg/mL (≈ 235 µM)

## CC(=O)N(O)CCCP(=O)(OCOC(=O)C(C)(C)C)OCOC(=O)C(C)(C)C [Compound 24]
MRSA NRS 70
  MIC S. aureus (MRSA): 50 µg/mL (≈ 118 µM)
E. coli k12
  MIC E. coli k12: >200 µg/mL
E. coli tolc
  MIC E. coli tolc: 100 µg/mL (≈ 235 µM)
E. faecalis
  MIC E. faecalis: >200 µg/mL
B. anthracis
  MIC B. anthracis: 200 µg/mL (≈ 470 µM)
Acinetobacter
  MIC Acinetobacter: >200 µg/mL
Mtb H37Rv (ATCC 27294)
  MIC M. tuberculosis (H37Rv): 50 to 100 µg/mL
  antitubercular activity (in words): better antitubercular activity
S. aureus (MSSA)
  MIC S. aureus (MSSA): 100 µg/mL (≈ 235 µM)

## CC(=O)N(O)CCCP(=O)(OC(C)OC(=O)OC(C)(C)C)OC(C)OC(=O)OC(C)(C)C (stereo not drawn) [Compound 25]
MRSA NRS 70
  MIC S. aureus (MRSA): 50 µg/mL (≈ 103 µM)
E. coli k12
  MIC E. coli k12: >200 µg/mL
E. coli tolc
  MIC E. coli tolc: >200 µg/mL
E. faecalis
  MIC E. faecalis: >200 µg/mL
B. anthracis
  MIC B. anthracis: 200 µg/mL (≈ 412 µM)
Acinetobacter
  MIC Acinetobacter: >200 µg/mL
Mtb H37Rv (ATCC 27294)
  MIC M. tuberculosis (H37Rv): 400 µg/mL (≈ 824 µM)
S. aureus (MSSA)
  MIC S. aureus (MSSA): 100 µg/mL (≈ 206 µM)

## CC(=O)N(O)CCCP(=O)(OCOC(=O)c1ccccc1)OCOC(=O)c1ccccc1 [Compound 26]
MRSA NRS 70
  MIC S. aureus (MRSA): >200 µg/mL
E. coli k12
  MIC E. coli k12: >200 µg/mL
E. coli tolc
  MIC E. coli tolc: 50 µg/mL (≈ 107 µM)
E. faecalis
  MIC E. faecalis: >200 µg/mL
B. anthracis
  MIC B. anthracis: 100 µg/mL (≈ 215 µM)
Acinetobacter
  MIC Acinetobacter: 200 µg/mL (≈ 430 µM)
Mtb H37Rv (ATCC 27294)
  MIC M. tuberculosis (H37Rv): 25 to 100 µg/mL
  antitubercular activity (in words): better antitubercular activity
S. aureus (MSSA)
  MIC S. aureus (MSSA): >200 µg/mL

## CCOP(=O)(CCCN(O)C(=O)C1CCCCC1)OCC [ERJ 112]
Mtb H37Rv (ATCC 27294); [1]
  MIC: > 200 µg/mL
Mtb H37Rv (ATCC 27294); [2]
  MIC: 100 µg/mL (≈ 311 µM)

## O=C(C1CCCCC1)N(O)CCCP(=O)([O-])O.[Na+] [ERJ 116]
M. tuberculosis Dxr; Mtb Dxr IC50 (ug/mL)
  IC50: 57.8 µM
Mtb H37Rv (ATCC 27294); [1]
  MIC: > 200 µg/mL
Mtb H37Rv (ATCC 27294); [2]
  MIC: > 200 µg/mL

## CCOP(=O)(CCCN(O)C(=O)C1CC1)OCC [ERJ 119]
Mtb H37Rv (ATCC 27294)
  Mtb MIC (ug/mL) (7H9): >200 (7H9) >200 (GAST) ug/mL
  Mtb MIC (ug/mL) (GAST): >200 (7H9) >200 (GAST) ug/mL

## O=C(C1CC1)N(O)CCCP(=O)([O-])O.[Na+] [ERJ 123]
Mtb H37Rv (ATCC 27294); read-out: Mtb MIC (ug/mL)
  MIC: > 400 µg/mL

## CCOP(=O)(CCCN(O)C(C)=O)OCC [GSJ21]
Mtb H37Rv (ATCC 27294)
  Mtb MIC: >200 µg/mL

## CC(=O)N(O)CCCCP(=O)(O)O [GSJ54]
M. tuberculosis Dxr; Mtb Dxr IC50 (ug/mL)
  IC50: 13.2 µM
Mtb H37Rv (ATCC 27294); read-out: Mtb MIC (ug/mL)
  MIC: > 200 µg/mL

## CCOP(=O)(CCCN(OCc1ccc(C(C)C)cc1)C(C)=O)OCC [GSJ70]
Mtb H37Rv (ATCC 27294); [1]
  MIC: 400 µg/mL (≈ 1040 µM)
Mtb H37Rv (ATCC 27294); [2]
  MIC: 200 µg/mL (≈ 519 µM)

## CCOP(=O)(CCCN(OCC1CCCCC1)C(C)=O)OCC [GSJ71]
Mtb H37Rv (ATCC 27294); [1]
  MIC: ≥ 400 µg/mL
Mtb H37Rv (ATCC 27294); [2]
  MIC: 200 to 400 µg/mL (≈ 572 to 1140 µM)

## CCOP(=O)(CCCN(OCc1ccc(-c2ccccc2)cc1)C(C)=O)OCC [GSJ72]
Mtb H37Rv (ATCC 27294); [1]
  MIC: 200 µg/mL (≈ 477 µM)
Mtb H37Rv (ATCC 27294); [2]
  MIC: 100 µg/mL (≈ 238 µM)

## CCOP(=O)(CCCN(OCc1ccc2ccccc2c1)C(C)=O)OCC [GSJ73]
Mtb H37Rv (ATCC 27294); [1]
  MIC: 200 µg/mL (≈ 508 µM)
Mtb H37Rv (ATCC 27294); [2]
  MIC: 100 µg/mL (≈ 254 µM)
